Literature values in patent US8609138B2, “ω3 fatty acid compound preparation” (Mochida Pharmaceutical Co., Ltd., priority 2010, dated 2013).

Legend:
[1] = pharmaceutical products; Non-Patent Literatures 2-4
[2] = pH 7.4; Non-Patent Literature 1

partition coefficient (octanol-water partition coefficient) [1] | log P7.4; water-octanol partition coefficient at a pH of 7.4 [2] | Structure (SMILES)
−0.33 | – | CC[C@H](C)C(=O)O[C@H]1C[C@H](O)C=C2C=C[C@H](C)[C@H](CC[C@@H](O)C[C@@H](O)CC(=O)O)[C@H]21 [Pravastatin sodium]
– | −0.84 | CC[C@H](C)C(=O)O[C@H]1C[C@H](O)C=C2C=C[C@H](C)[C@H](CC[C@@H](O)C[C@@H](O)CC(=O)O)[C@H]21 [pravastatin]
−0.3±0.1 | – | CC(C)c1nc(N(C)S(C)(=O)=O)nc(-c2ccc(F)cc2)c1/C=C/[C@@H](O)C[C@@H](O)CC(=O)[O-].CC(C)c1nc(N(C)S(C)(=O)=O)nc(-c2ccc(F)cc2)c1/C=C/[C@@H](O)C[C@@H](O)CC(=O)[O-].[Ca+2] [rosuvastatin calcium]
– | ~-0.33 | CC(C)c1nc(N(C)S(C)(=O)=O)nc(-c2ccc(F)cc2)c1/C=C/[C@@H](O)C[C@@H](O)CC(=O)O [rosuvastatin]
– | 1.60 | CCC(C)(C)C(=O)O[C@H]1C[C@@H](C)C=C2C=C[C@H](C)[C@H](CC[C@@H]3C[C@@H](O)CC(=O)O3)[C@H]21 [simvastatin]
